In patent US20200316084A1, “METHODS TO TARGET TRANSCRIPTIONAL CONTROL AT SUPER-ENHANCER REGIONS” (TOLERO PHARMACEUTICALS, INC., priority 2014, published 2020):

Tests used:
c-MYC = c-MYC expression by RT-qPCR in MV4-11 cells; assay type: cell-based; details: 2 hours, various concentrations
Protocol: The c-MYC gene is well known to be regulated by the super-enhancer complex in AML cells. JQ-1, a BET protein inhibitor, and alvocidib, a Cdk inhibitor, were used alone and in combination in order to determine the effect of the drug(s) on c-MYC expression. MV4-11 cells were treated with various concentrations of alvocidib and/or JQ-1 for 2 hours. DMSO-treated controls were also included. Treatment was stopped by lysing the cells and isolating RNA for RT-qPCR analysis. The expression of c-MYC was determined and normalized to the housekeeping gene, HPRT1 and to the DMSO-treated control.

MV4-11 cells = assay: MV4-11 subcutaneous xenograft, tumor volume by caliper; assay type: in vivo, athymic Nu/Nu mice; details: for effect on tumor volume: 25 mg/kg JQ-1, 2.5 mg/kg alvocidib or both, intraperitoneally once daily for 5 days, total of 3 weeks
Description: (§1) The AML cell line, MV4-11 is MLL fusion and FLT3-ITD positive. The MLL fusion makes this cell line particularly dependent upon super-enhancer function for driving oncogenesis. MV4-11 cells were implanted subcutaneously in athymic Nu/Nu mice and allowed to establish until tumors reached 100-200 mm^3. JQ-1, a BET protein inhibitor, and alvocidib, a Cdk inhibitor, were used alone and in combination in order to determine the effect of the drug(s) on tumor volume. Animals were stratified into 4 groups and administered one of four treatments: vehicle, 25 mg/kg JQ-1, 2.5 mg/kg alvocidib, or a combination of the two drugs at these doses. The drugs were administered intraperitoneally, once daily for 5 days, for a total of 3 weeks. Tumor volume was measured twice weekly by caliper measurement. […] Weight gain in vehicle and individual drug-treated mice could be attributed to tumor growth. Weight gain in the mice given the combination treatment could be attributed to the overall health and food intake of the mice.

MV4-11 = assay: Cell viability by Cell Titer GLO, MV4-11; assay type: cell-based; details: then 48 h inhibitor
Protocol: (§2) MOLM13 and MV4-11 are MLL fusion and FLT3-ITD positive, AML cells lines. Both cell lines were treated with 20 nM of alvocidib, a Cdk inhibitor, for 48 hours or DMSO control, followed by the addition of JQ-1, an inhibitor of BET proteins, at various concentrations (10 μM-0.0003 μM) or by the addition of panobinostat, an inhibitor of HDAC, at various concentrations (10 μM-0.0003 μM) for 48 additional hours. At completion, cell viability was measured by Cell Titer GLO reagent. IC50 values were determined for JQ-1 and panobinostat with and without the low dose of alvocidib. Addition of 20 nM alvocidib increased the potency of JQ-1, as shown by an IC50 value of 2-fold lower.

[1] = Body weight of MV4-11 xenograft mice; assay type: in vivo, athymic Nu/Nu mice; details: throughout the study; 25 mg/kg JQ-1, 2.5 mg/kg alvocidib or both
Description: as §1

MOLM13 = assay: Cell viability by Cell Titer GLO, MOLM13; assay type: cell-based; details: for IC50: MOLM13, then 48 h inhibitor
Protocol: as §2

MCL-1 [2] = assay: MCL-1 expression relative to HPRT in MV4-11 cells; assay type: cell-based; details: alvocidib single agent, two hours
Protocol: (§3) To determine the MYC and MCL-1 inhibitory activity of alvocidib, MV4-11 cells were treated with alvocidib for two hours and the expression of MYC and MCL-1 relative to HPRT was determined.

MCL-1 and c-MYC/N-MYC [3] = assay: Protein expression by western blotting in A549 cells; assay type: cell-based, human; details: 100 nM, time course
Protocol: (§4) A549 cells and SK-N-AS cells (human adrenal neuroblastoma cell line) were seeded and treated with alvocidib at concentrations of 100 nM and 300 nM respectively. Cells were collected at given times and total protein was extracted and detected using western blotting.

MCL-1 and c-MYC/N-MYC [4] = assay: Protein expression by western blotting in SK-N-AS cells; assay type: cell-based, human; details: 300 nM, time course
Protocol: as §4

MCL-1 [5] = assay: MCL-1 mRNA expression in A549 cells, alvocidib with JQ-1, RT-qPCR; assay type: cell-based, human; details: JQ-1 0 nM-50 nM 1 hour, then alvocidib 0 nM-100 nM 2 hours
Protocol: A549 cells were seeded and treated with alvocidib at concentrations ranging from 0 nM-100 nM in combination with JQ-1 at concentrations ranging from 0 nM-50 nM. Cells were first treated with JQ-1 for 1 hour followed by treatment with alvocidib for 2 hours.

MYC [6] = assay: MYC expression relative to HPRT in MV4-11 cells; assay type: cell-based; details: alvocidib single agent, two hours
Protocol: as §3

MCL-1 [7] = assay: MCL-1 mRNA expression time course in MV4-11 cells, RT-qPCR; assay type: cell-based; details: MV4-11, 100 nM
Protocol: MV4-11 cells were seeded and treated with alvocidib at a concentration of 100 nM. […] Cells were harvested and detection of mRNA was carried out using RT-qPCR analysis in the manner described in previous examples. Expression of MCL-1 was compared to expression of controls and untreated cells. […] There appears to be no inhibition on expression by the 3 hour time point.

CDK9 and Hexim1 = CDK9 and Hexim1 (Homo sapiens, UniProt P50750); assay: CDK9/Hexim1 association, immunoprecipitation and western blotting in MV4-11 cells; assay type: cell-based
CDK9 and Hexim1, sequence (P50750 whole entry): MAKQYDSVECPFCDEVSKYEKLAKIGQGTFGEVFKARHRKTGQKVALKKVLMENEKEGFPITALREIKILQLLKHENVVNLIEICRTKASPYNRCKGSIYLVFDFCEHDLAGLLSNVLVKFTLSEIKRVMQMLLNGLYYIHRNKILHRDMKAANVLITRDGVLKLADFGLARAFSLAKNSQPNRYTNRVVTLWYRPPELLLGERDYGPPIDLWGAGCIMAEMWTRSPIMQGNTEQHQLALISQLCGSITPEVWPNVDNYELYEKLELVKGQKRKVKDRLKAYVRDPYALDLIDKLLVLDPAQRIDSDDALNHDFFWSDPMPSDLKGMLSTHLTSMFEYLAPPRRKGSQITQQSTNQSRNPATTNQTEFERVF
CDK9 and Hexim1, sequence (O60563 whole entry partner): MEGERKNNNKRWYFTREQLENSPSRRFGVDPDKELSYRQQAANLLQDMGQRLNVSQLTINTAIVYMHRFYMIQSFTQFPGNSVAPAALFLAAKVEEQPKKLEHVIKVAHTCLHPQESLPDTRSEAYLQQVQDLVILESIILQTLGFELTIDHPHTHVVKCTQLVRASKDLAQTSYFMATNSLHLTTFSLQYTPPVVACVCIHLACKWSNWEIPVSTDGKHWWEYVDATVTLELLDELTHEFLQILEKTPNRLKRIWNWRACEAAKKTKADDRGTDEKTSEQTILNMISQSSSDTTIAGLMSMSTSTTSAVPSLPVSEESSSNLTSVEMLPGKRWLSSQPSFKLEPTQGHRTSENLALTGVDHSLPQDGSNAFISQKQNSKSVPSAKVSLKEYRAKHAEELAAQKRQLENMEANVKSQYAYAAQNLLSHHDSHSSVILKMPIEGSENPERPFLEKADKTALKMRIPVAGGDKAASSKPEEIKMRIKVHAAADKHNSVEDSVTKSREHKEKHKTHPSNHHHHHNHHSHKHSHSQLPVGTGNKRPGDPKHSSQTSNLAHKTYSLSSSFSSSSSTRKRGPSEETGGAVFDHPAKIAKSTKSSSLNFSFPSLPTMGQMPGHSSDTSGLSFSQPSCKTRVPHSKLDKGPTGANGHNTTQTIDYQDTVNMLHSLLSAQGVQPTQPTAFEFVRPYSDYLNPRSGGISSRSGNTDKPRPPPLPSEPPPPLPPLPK
Protocol: MV4-11 cells were seeded and treated with alvocidib in identical concentrations and doses. Cells were collected at given times and subjected to high salt lysis buffer and immunoprecipitation followed by western blotting. […] FIGS. 11A and 11B provide results of a dose escalation study performed according to the above general procedure. […] Representative western blot is provided in FIG. 11A with quantification of the western blot in FIG. 11B.
Representative western blot is provided in FIG. 12A with quantification of the western blot in FIG. 12B.

MYC [8] = assay: MYC mRNA expression in A549 cells, RT-qPCR; assay type: cell-based, human; details: 0-8 μM, 2 hours
Protocol: (§5) A549 cells were seeded and treated with alvocidib at concentrations ranging from 0-8 μM for 2 hours. Following the treatment of solid tumor cells, cells were harvested and mRNA was detected using RT-qPCR in the manner described in previous examples.

MCL-1 [9] = assay: MCL-1 mRNA expression in A549 cells, RT-qPCR; assay type: cell-based, human; details: 0-8 μM, 2 hours
Protocol: as §5

[10] = test system: super enhancer complex regulated genes; assay: Super enhancer complex regulated genes, mRNA expression in A549 cells; assay type: cell-based, human
Protocol: A549 cells are adenocarcinomic human alveolar basal epithelial cells used as a type II pulmonary epithelial model (solid tumor). These cells were seeded and treated with alvocidib in identical concentrations and doses. Treatment was stopped by lysing the cells and isolating RNA for RT-qPCR analysis. […] The expression of mRNA was determined and normalized to β-actin and the control.

For `Cc1sc2c(c1C)C(c1ccc(Cl)cc1)=N[C@@H](CC(=O)OC(C)(C)C)c1nnc(C)n1-2` [JQ-1], which “expression of c-MYC normalized to HPRT1 and DMSO control” value (c-MYC) is on record?
Its value is “downregulated”.

And the “effect on tumor volume” value (MV4-11 cells)?
Its value is “no measurable activity”.

And the IC50 (MV4-11; 20 nM alvocidib 48 h)?
Its IC50 is 133 nM.

And the IC50 (MV4-11; without alvocidib (DMSO 48 h))?
Its IC50 is 228 nM.

And the body weight [1]?
Its body weight is “comparable”.

What about the IC50 (MOLM13; 20 nM alvocidib 48 h) of the same compound?
Its IC50 is 209 nM.

And the IC50 (MOLM13; without alvocidib (DMSO 48 h))?
Its IC50 is 526 nM.

And the “fold lower IC50 on addition of 20 nM alvocidib” value (MOLM13; MOLM13 and MV4-11)?
Its value is 2 fold.

Which IC50 (MV4-11; Homo sapiens, MV4-11, 48 h, 20 nM alvocidib 48 h) does the source give for `Cc1[nH]c2ccccc2c1CCNCc1ccc(/C=C/C(=O)NO)cc1` [Panobinostat, panobinostat] here?
The IC50 was 3 nM.

What about the IC50 (MV4-11; Homo sapiens, MV4-11, 48 h, without alvocidib (DMSO 48 h)) of the same compound?
Its IC50 is 18 nM.

And the IC50 (MOLM13; Homo sapiens, MOLM-13, 48 h, 20 nM alvocidib 48 h)?
The IC50 was 5 nM.

And the IC50 (MOLM13; Homo sapiens, MOLM-13, 48 h, without alvocidib (DMSO 48 h))?
Its IC50 is 16 nM.

Which “reduction of MCL-1 expression” value (MCL-1 [2]) does the source give for `CN1CC[C@H](c2c(O)cc(O)c3c(=O)cc(-c4ccccc4Cl)oc23)[C@H](O)C1` [alvocidib] here?
The value was 60%.

What about the “expression of c-MYC normalized to HPRT1 and DMSO control” value (c-MYC) of the same compound?
Its value is “downregulated”.

And the “protein expression of MCL-1 and c-MYC/N-MYC” value (MCL-1 and c-MYC/N-MYC [3])?
The value was “represses protein expression”.

What about the “protein expression of MCL-1 and c-MYC/N-MYC” value (MCL-1 and c-MYC/N-MYC [4]) of the same compound?
The value was “represses protein expression”.

And the “MCL-1 mRNA expression” value (MCL-1 [5])?
Its value is “represses MCL-1 mRNA expression”.

What about the “tumor size relative to vehicle” value (MV4-11 cells; 2.5 mg/kg alvocidib i.p., throughout the study) of the same compound?
The value was “approximately 50%”.

What about the “effect on tumor volume” value (MV4-11 cells) of the same compound?
The value was “moderate activity”.

And the MYC expression (MYC [6])?
Its MYC expression is “completely eliminates”.

What about the “MCL-1 mRNA expression” value (MCL-1 [7]; 30 minute time point) of the same compound?
The value was “repressed”.

What about the “MCL-1 mRNA expression” value (MCL-1 [7]; 1 hour post-dose) of the same compound?
Its value is “maximum repression”.

And the “MCL-1 mRNA expression” value (MCL-1 [7]; 2 hour time point)?
The value was “repression is reduced”.

And the “MCL-1 mRNA expression” value (MCL-1 [7]; 3 hour time point)?
Its value is “no inhibition”.

What about the body weight [1] of the same compound?
Its body weight is “comparable”.

And the CDK9/Hexim1 association (CDK9 and Hexim1; 500 nM dose, half hour time point)?
Its CDK9/Hexim1 association is “increased CDK9/Hexim1 association”.

What about the “association of CDK9 and Hexim1” value (CDK9 and Hexim1; 1 mM alvocidib, time course) of the same compound?
Its value is “increases association of CDK9 and Hexim1 in a time dependent manner”.

What about the “CDK9/Hexim1 association” value (CDK9 and Hexim1; 2 hr treatment, different doses) of the same compound?
Its value is “dose dependent increase”.

What about the “MYC mRNA expression relative to HPRT1” value (MYC [8]) of the same compound?
The value was “represses MYC mRNA expression in a dose dependent manner”.

And the “MCL-1 mRNA expression relative to HPRT1” value (MCL-1 [9])?
Its value is “represses MCL-1 mRNA expression in a dose dependent manner”.

What about the mRNA expression ([10]; 0.1 μM dose, 2 hour time point) of the same compound?
Its mRNA expression is “noticeably repressed”.

And the “expression of mRNA normalized to β-actin and control” value ([10]; 24 and 48 hour time points)?
The value was “downregulated the expression of mRNA completely”.

What about the “mRNA expression relative to β-actin and vehicle control” value ([10]; doses of 1 μM up to 8 μM, 2 hours) of the same compound?
The value was “Complete repression”.
